Laboratory results taken from ChEMBL document CHEMBL4184197 (Bioorg Med Chem, 2018).

Experiments:
[1] = biological target: T1, Retinoic acid receptor alpha (Mus musculus) (UniProt P11416); assay: Transactivation of mouse Gal4-fused RARalpha-LBD expressed in COS-7 cells after 1 day by bright-Glo reagent based assay relative to control ATRA; assay type: cell-based
T1 sequence (whole entry): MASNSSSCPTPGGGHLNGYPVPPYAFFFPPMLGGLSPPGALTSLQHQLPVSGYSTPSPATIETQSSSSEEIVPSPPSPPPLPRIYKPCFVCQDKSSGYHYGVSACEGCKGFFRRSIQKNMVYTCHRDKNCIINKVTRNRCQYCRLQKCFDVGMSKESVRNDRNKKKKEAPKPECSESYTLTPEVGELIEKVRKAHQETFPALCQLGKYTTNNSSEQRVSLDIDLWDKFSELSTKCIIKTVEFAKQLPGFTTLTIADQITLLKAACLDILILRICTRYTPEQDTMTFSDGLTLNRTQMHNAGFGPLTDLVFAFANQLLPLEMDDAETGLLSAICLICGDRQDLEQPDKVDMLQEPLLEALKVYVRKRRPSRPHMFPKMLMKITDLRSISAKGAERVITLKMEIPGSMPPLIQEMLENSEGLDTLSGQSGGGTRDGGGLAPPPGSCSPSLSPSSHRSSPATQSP

[2] = biological target: T2, Retinoic acid receptor beta (Mus musculus) (UniProt P22605); assay: Transactivation of mouse Gal4-fused RARbeta-LBD expressed in COS-7 cells after 1 day by bright-Glo reagent based assay relative to control ATRA; assay type: cell-based
T2 sequence (whole entry): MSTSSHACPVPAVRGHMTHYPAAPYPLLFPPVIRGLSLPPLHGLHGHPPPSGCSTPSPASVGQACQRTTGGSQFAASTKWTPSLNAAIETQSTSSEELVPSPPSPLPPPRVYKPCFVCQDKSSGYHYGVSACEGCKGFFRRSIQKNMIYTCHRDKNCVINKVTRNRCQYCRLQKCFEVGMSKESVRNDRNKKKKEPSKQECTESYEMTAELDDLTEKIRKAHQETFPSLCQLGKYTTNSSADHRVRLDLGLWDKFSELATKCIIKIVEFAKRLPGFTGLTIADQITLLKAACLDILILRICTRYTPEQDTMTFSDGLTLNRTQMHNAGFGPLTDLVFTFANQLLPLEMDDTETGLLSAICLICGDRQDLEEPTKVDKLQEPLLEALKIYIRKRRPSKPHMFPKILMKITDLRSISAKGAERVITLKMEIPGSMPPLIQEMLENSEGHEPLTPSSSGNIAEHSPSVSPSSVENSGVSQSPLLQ

[3] = biological target: T3, Retinoic acid receptor gamma (Mus musculus) (UniProt P18911); assay: Transactivation of mouse Gal4-fused RARgamma-LBD expressed in COS-7 cells after 1 day by bright-Glo reagent based assay relative to control ATRA; assay type: cell-based
T3 sequence (whole entry): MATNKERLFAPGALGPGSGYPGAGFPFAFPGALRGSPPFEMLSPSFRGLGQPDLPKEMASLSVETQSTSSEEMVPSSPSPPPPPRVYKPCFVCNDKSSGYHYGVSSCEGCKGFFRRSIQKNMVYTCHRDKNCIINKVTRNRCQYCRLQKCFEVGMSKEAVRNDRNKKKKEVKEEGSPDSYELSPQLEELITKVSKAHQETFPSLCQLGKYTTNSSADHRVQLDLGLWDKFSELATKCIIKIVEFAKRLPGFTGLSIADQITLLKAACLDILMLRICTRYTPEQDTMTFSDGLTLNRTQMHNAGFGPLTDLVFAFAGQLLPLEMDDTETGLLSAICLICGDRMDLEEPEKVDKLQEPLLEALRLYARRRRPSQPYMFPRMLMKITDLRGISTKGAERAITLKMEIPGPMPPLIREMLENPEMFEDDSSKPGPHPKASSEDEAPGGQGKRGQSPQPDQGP

[4] = Oral bioavailability in Sprague-Dawley rat at 10 mg/kg by LC-MS/MS analysis; assay type: ADME, organism-based; details: in vivo
[5] = tested on: Rattus norvegicus; assay: AUC in Sprague-Dawley rat at 10 mg/kg, po by LC-MS/MS analysis; assay type: ADME, organism-based; details: in vivo

CC(C)(C)Oc1cc(C(=O)Nc2ccc(C(=O)O)cc2)cc(Cl)c1OC(C)(C)C gave a Ratio EC50 [1] of 0.9, a Ratio EC50 [2] of 38 and a Ratio EC50 [3] of 162.

Compound CCOc1c(Cl)cc(C(=O)Nc2ccc(C(=O)O)c(O)c2)cc1Cl has a Ratio EC50 [1] of 33.

Work on CCOc1c(Cl)cc(C(=O)Nc2ccc(C(=O)O)c(C(F)(F)F)c2)cc1Cl yielded a Ratio EC50 [1] of 1.7.

With CCOc1c(Cl)cc(C(=O)Nc2ccc(C(=O)O)c(Cl)c2)cc1Cl the Ratio EC50 [1] was 151.

In the case of Cc1cc(NC(=O)c2cc(Cl)c(OC(C)C)c(OC(C)C)c2)ccc1C(=O)O, the Ratio EC50 [1] was 0.97.

In the case of CCCCOc1c(Cl)cc(C(=O)Nc2ccc(C(=O)O)cc2)cc1Cl, the Ratio EC50 [1] was 84, the Ratio EC50 [2] was 717 and the Ratio EC50 [3] was 1480.

Work on CCOc1c(Cl)cc(C(=O)Nc2ccc(C(=O)O)c(C)c2)cc1OCC1CC1 yielded a Ratio EC50 [1] of 2.6.

Compound CCOc1c(Cl)cc(C(=O)Nc2ccc(C(=O)O)cc2)cc1Cl has a bioavailability [4] of over 35%.

Work on O=C(O)c1ccc(NC(=O)c2cc(Cl)c(OC3CCCC3)c(OC3CCCC3)c2)cc1 yielded a Ratio EC50 [1] of 1.7, a Ratio EC50 [2] of 55 and a Ratio EC50 [3] of 571.

In the case of CCOc1cc(C(=O)Nc2ccc(C(=O)O)cc2)cc(OCC)c1OCC, the Ratio EC50 [1] was 368 to 370, the Ratio EC50 [2] was 64100 and the Ratio EC50 [3] was 5880.

Compound CC(C)Oc1c(Cl)cc(C(=O)Nc2ccc(C(=O)O)cc2)cc1Cl has a Ratio EC50 [1] of 7, a Ratio EC50 [2] of 1420 and a Ratio EC50 [3] of 823.

With CCOc1cc(C(=O)Nc2ccc(C(=O)O)c(C)c2)cc(Cl)c1OC(C)C the Ratio EC50 [1] was 7.

CCOc1cc(C(=O)Nc2ccc(C(=O)O)cc2)cc(OC(C)C)c1OCC showed a Ratio EC50 [1] of 29, a Ratio EC50 [2] of 2450 and a Ratio EC50 [3] of 960.

O=C(O)c1ccc(NC(=O)c2cc(Cl)c(O)c(Cl)c2)cc1 showed a Ratio EC50 [1] of 92, a Ratio EC50 [2] of 642 and a Ratio EC50 [3] of 5000.

Cc1cc(NC(=O)c2cc(Cl)c(OC(C)(C)C)c(OC(C)(C)C)c2)ccc1C(=O)O gave a Ratio EC50 [1] of 0.64.

With CCOc1c(Br)cc(C(=O)Nc2ccc(C(=O)O)cc2)cc1Br the Ratio EC50 [1] was 5.

COc1c(Cl)cc(C(=O)Nc2ccc(C(=O)O)cc2)cc1Cl gave a Ratio EC50 [1] of 30, a Ratio EC50 [2] of 9520 and a Ratio EC50 [3] of 5850.

Compound CCOc1c(OC2CCCC2)cc(C(=O)Nc2ccc(C(=O)O)cc2)cc1OC1CCCC1 has a Ratio EC50 [1] of 29, a Ratio EC50 [2] of 4200 and a Ratio EC50 [3] of 550.

CCOc1c(Cl)cc(NC(=O)c2ccc(C(=O)O)cc2)cc1Cl showed a Ratio EC50 [1] of 30, a Ratio EC50 [2] of 355 and a Ratio EC50 [3] of over 108000.

CC(C)Oc1cc(C(=O)Nc2ccc(C(=O)O)c(F)c2)cc(Cl)c1OC(C)C showed a Ratio EC50 [1] of 2.7.

Work on CCOc1c(OC(C)C)cc(C(=O)Nc2ccc(C(=O)O)cc2)cc1OC(C)C yielded an AUC [5] of 783782 ng·min/mL.

In the case of CCOc1c(Cl)cc(C(=O)Nc2ccc(C(=O)O)c(F)c2)cc1OC(C)C, the Ratio EC50 [1] was 1.1.

CCCOc1c(Cl)cc(C(=O)Nc2ccc(C(=O)O)cc2)cc1Cl gave a Ratio EC50 [1] of 15, a Ratio EC50 [2] of 139 and a Ratio EC50 [3] of 1200.

Work on COc1c(Cl)cc(C(=O)Nc2ccc(C(=O)O)c(F)c2)cc1OC(C)C yielded a Ratio EC50 [1] of 6.7.

For CCOc1c(C(C)(C)C)cc(C(=O)Nc2ccc(C(=O)O)cc2)cc1C(C)(C)C, the Ratio EC50 [1] was 0.2.

O=C(O)c1ccc(NC(=O)c2cc(Cl)c(OC3CCC3)c(OC3CCC3)c2)cc1 showed a Ratio EC50 [1] of 2.4, a Ratio EC50 [2] of 53 and a Ratio EC50 [3] of 1060.

CCOc1c(Cl)cc(C(=O)Nc2ccc(C(=O)O)cc2)cc1OC1CCC1 gave a Ratio EC50 [1] of 1.

COc1c(Cl)cc(C(=O)Nc2ccc(C(=O)O)c(C)c2)cc1OC(C)C gave a Ratio EC50 [1] of 4.7.

With CCOc1c(Cl)cc(C(=O)Nc2ccc(C(=O)O)c(C)c2)cc1OC the Ratio EC50 [1] was 33.

Work on CCOc1c(Cl)cc(C(=O)Nc2ccc(C(=O)O)c(F)c2)cc1Cl yielded a Ratio EC50 [1] of 25.

Compound CC(C)Oc1cc(C(=O)Nc2ccc(C(=O)O)cc2)cc(OC(C)C)c1OC(C)C has a Ratio EC50 [1] of 27, a Ratio EC50 [2] of 2600 and a Ratio EC50 [3] of 225.

Compound CCOc1cc(C(=O)Nc2ccc(C(=O)O)cc2)cc(Cl)c1OC(C)C has a Ratio EC50 [1] of 2.1, a Ratio EC50 [2] of 7.1 and a Ratio EC50 [3] of 1200.

CC1(C)CCC(C)(C)c2c1cc(C(=O)Nc1cc(F)c(C(=O)O)c(F)c1)c(O)c2Cl [NRX195183] gave a Ratio EC50 [1] of 11, a Ratio EC50 [2] of 1560 and a Ratio EC50 [3] of 9840.
